From publication PMC8655237 (Journal of Advanced Research, 2021)
Each block holds one molecule with its values, some of them ahead of it. Where a SMILES comes first, the peptide text is derived from it. [ ]: non-standard residue; d: D form. The star is where a group is joined. Sta = CC(C)C[C@H](N)[C@@H](O)CC(=O)O; Isovaleryl = CC(C)CC(=O)*

How the values were obtained:
LOX-5 mRNA = assay: Real-time qPCR expression analysis; type: cell-based, human; conditions: GAPDH internal control
MDA-MB-231 [1] = assay: NRU antiproliferative assay; type: cell-based; conditions: Homo sapiens, MDA-MB-231, 24 h, read-out: IC50 (NRU)
A431 cells [2] = assay: DCFH-DA ROS assay; type: cell-based, human; conditions: A431, flow cytometry, 1 µM
PC-3 [3] = assay: SRB antiproliferative assay; type: cell-based; conditions: Homo sapiens, PC-3, 24 h, read-out: IC50 (SRB)
PC-3 [4] = assay: NRU antiproliferative assay; type: cell-based; conditions: Homo sapiens, PC-3, 24 h, read-out: IC50 (NRU)
MDA-MB-231 [5] = assay: SRB antiproliferative assay; type: cell-based; conditions: Homo sapiens, MDA-MB-231, 24 h, read-out: IC50 (SRB)
A431 [6] = assay: MTT antiproliferative assay; type: cell-based; conditions: Homo sapiens, A-431, 24 h, read-out: IC50 (MTT)
A431 [7] = assay: NRU antiproliferative assay; type: cell-based; conditions: Homo sapiens, A-431, 24 h, read-out: IC50 (NRU)
A431 [8] = assay: SRB antiproliferative assay; type: cell-based; conditions: Homo sapiens, A-431, 24 h, read-out: IC50 (SRB)
A431 cells [9] = assay: Mitochondrial membrane potential; type: cell-based, human; conditions: A431, flow cytometry, 1 µM
PC-3 [10] = assay: MTT antiproliferative assay; type: cell-based; conditions: Homo sapiens, PC-3, 24 h, read-out: IC50 (MTT)
MDA-MB-231 [11] = assay: MTT antiproliferative assay; type: cell-based; conditions: Homo sapiens, MDA-MB-231, 24 h, read-out: IC50 (MTT)
hyaluronidase (HYAL) [12] = assay: Hyaluronidase assay, cell-based; set-up: species or system human
HYAL mRNA = assay: Real-time qPCR expression analysis; type: cell-based, human; conditions: GAPDH internal control
hyaluronidase (HYAL) [13] = assay: Hyaluronidase assay, cell-free; type: biochemical; conditions: read-out: IC50 HYAL; cell free (In vitro)
K562 [14] = assay: NRU antiproliferative assay; type: cell-based; conditions: Homo sapiens, K562, 24 h, read-out: IC50 (NRU)
FaDu [15] = assay: MTT antiproliferative assay; type: cell-based; conditions: Homo sapiens, 24 h, read-out: IC50 (MTT)
K562 [16] = assay: MTT antiproliferative assay; type: cell-based; conditions: Homo sapiens, K562, 24 h, read-out: IC50 (MTT)
K562 [17] = assay: SRB antiproliferative assay; type: cell-based; conditions: Homo sapiens, K562, 24 h, read-out: IC50 (SRB)
FaDu [18] = assay: NRU antiproliferative assay; type: cell-based; conditions: Homo sapiens, 24 h, read-out: IC50 (NRU)
FaDu [19] = assay: SRB antiproliferative assay; type: cell-based; conditions: Homo sapiens, 24 h, read-out: IC50 (SRB)
tubulin protein = tubulin protein (Sus scrofa, UniProt P02550+P02554); assay: Tubulin polymerization assay; type: biochemical; conditions: 10 μM
Sequence of tubulin protein (P02550 whole entry): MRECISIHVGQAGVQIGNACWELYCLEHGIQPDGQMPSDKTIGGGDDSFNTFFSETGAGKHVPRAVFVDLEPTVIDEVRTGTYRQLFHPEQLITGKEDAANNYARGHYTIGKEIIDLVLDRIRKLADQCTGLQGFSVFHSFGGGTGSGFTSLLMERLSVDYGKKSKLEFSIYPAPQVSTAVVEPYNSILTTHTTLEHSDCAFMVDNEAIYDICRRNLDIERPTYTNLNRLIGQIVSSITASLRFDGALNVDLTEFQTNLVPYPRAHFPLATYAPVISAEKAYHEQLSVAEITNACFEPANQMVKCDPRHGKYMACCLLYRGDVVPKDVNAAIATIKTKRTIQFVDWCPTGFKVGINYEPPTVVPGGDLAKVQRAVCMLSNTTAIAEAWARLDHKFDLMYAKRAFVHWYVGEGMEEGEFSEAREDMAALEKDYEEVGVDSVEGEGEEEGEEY
Sequence of tubulin protein (P02554 whole entry): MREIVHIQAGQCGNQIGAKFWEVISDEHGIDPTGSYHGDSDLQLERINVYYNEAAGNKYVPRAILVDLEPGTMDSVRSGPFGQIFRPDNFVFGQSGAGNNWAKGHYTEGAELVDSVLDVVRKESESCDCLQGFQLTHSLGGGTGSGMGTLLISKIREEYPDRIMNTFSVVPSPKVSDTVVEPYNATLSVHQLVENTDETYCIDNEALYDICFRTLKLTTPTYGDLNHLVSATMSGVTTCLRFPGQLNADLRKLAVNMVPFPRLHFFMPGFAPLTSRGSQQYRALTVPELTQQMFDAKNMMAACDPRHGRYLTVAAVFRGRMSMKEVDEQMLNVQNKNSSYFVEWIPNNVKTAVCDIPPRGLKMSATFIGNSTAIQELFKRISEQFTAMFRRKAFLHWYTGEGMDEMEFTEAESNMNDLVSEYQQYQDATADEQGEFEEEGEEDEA

DHFR mRNA = assay: Real-time qPCR expression analysis; type: cell-based, human; conditions: GAPDH internal control
ODC mRNA = assay: Real-time qPCR expression analysis; type: cell-based, human; conditions: GAPDH internal control
[20] = test system: Ornithine decarboxylase (ODC); assay: ODC assay, cell-free; type: biochemical; conditions: read-out: IC50 ODC; cell free (In vitro)
A549 [21] = assay: NRU antiproliferative assay; type: cell-based; conditions: Homo sapiens, A549, 24 h, read-out: IC50 (NRU)
A549 [22] = assay: SRB antiproliferative assay; type: cell-based; conditions: Homo sapiens, A549, 24 h, read-out: IC50 (SRB)
A549 [23] = assay: MTT antiproliferative assay; type: cell-based; conditions: Homo sapiens, A549, 24 h, read-out: IC50 (MTT)
[24] = test system: Ehrlich Ascites Carcinoma (EAC); assay: Ehrlich ascites carcinoma; type: in vivo, Swiss albino mice; conditions: 20 mg/kg bw i.p., day 1-9
CAT D mRNA = assay: Real-time qPCR expression analysis; type: cell-based, human; conditions: GAPDH internal control
[25] = MDA-MB-231, with respect to control

SMILES: CC(c1cc2ccccc2s1)N(O)C(N)=O (stereo not drawn) [Zileuton]
LOX-5 mRNA expression level (LOX-5 mRNA; A431, with respect to control): 3.10 fold change
LOX-5 mRNA expression level (LOX-5 mRNA; FaDu, with respect to control): 2.96 fold change
LOX-5 mRNA expression level (LOX-5 mRNA; K562, with respect to control): 3.01 fold change
LOX-5 mRNA expression level (LOX-5 mRNA; [25]): 3.09 fold change
LOX-5 mRNA expression level (LOX-5 mRNA; PC-3, with respect to control): 2.22 fold change

IC50 (MDA-MB-231 [1]): 3.64 ± 1.8 µM
IC50 (PC-3 [3]): 3 ± 1.16 µM
IC50 (PC-3 [4]): 1.2 ± 0.36 µM
IC50 (MDA-MB-231 [5]): 1.51 ± 0.86 µM
IC50 (A431 [6]): 1.6 ± 0.09 µM
IC50 (A431 [7]): 1.15 ± 0.37 µM
IC50 (A431 [8]): 1.21 ± 0.03 µM
IC50 (PC-3 [10]): 2.24 ± 1.56 µM
IC50 (MDA-MB-231 [11]): 1.55 ± 0.95 µM
SMILES: COc1cccc2c1C(=O)c1c(O)c3c(c(O)c1C2=O)C[C@@](O)(C(=O)CO)C[C@@H]3O[C@H]1C[C@H](N)[C@H](O)[C@H](C)O1 [Doxorubicin, reference compound]
total mean of DCF positive cells (A431 cells [2]): 370 ± 14.14
total of FITC mean (Rh123) (A431 cells [9]): 2735 ± 5.65

IC50 (hyaluronidase (HYAL) [12]; read-out: IC50 HYAL, A431): 8.2 ± 1.42 µM
IC50 (hyaluronidase (HYAL) [12]; read-out: IC50 HYAL, A549): 13.7 ± 4.37 µM
IC50 (hyaluronidase (HYAL) [12]; read-out: IC50 HYAL, FaDu): 7.44 ± 0.67 µM
IC50 (hyaluronidase (HYAL) [12]; read-out: IC50 HYAL, K562): 7.56 ± 0.59 µM
IC50 (hyaluronidase (HYAL) [12]; read-out: IC50 HYAL, MDA-MB-231): 14.6 ± 3.07 µM
IC50 (hyaluronidase (HYAL) [12]; read-out: IC50 HYAL, PC-3): 9.44 ± 3.13 µM
IC50 (hyaluronidase (HYAL) [13]): 5.92 ± 0.7 µM
SMILES: CC(=O)N[C@@H](CS)C(=O)O [NAC, N-acetyl cysteine]
HYAL mRNA expression level (HYAL mRNA; A431, with respect to control): 4.50 fold change
HYAL mRNA expression level (HYAL mRNA; A549, with respect to control): 4.09 fold change
HYAL mRNA expression level (HYAL mRNA; FaDu, with respect to control): 6.66 fold change
HYAL mRNA expression level (HYAL mRNA; K562, with respect to control): 8.98 fold change
HYAL mRNA expression level (HYAL mRNA; [25]): 6.87 fold change
HYAL mRNA expression level (HYAL mRNA; PC-3, with respect to control): 5.64 fold change

SMILES: COc1cc([C@@H]2c3cc4c(cc3[C@H](O)[C@H]3COC(=O)[C@H]23)OCO4)cc(OC)c1OC [Podophyllotoxin]
IC50 (K562 [14]): 32.3 ± 3.11 µM
IC50 (FaDu [15]): 16.2 ± 1.04 µM
IC50 (K562 [16]): 46.4 ± 4.27 µM
IC50 (K562 [17]): 50.26 ± 0.45 µM
IC50 (FaDu [18]): 25.3 ± 0.28 µM
IC50 (FaDu [19]): 34.1 ± 1.79 µM
effect on tubulin polymerization (tubulin protein): inhibit the polymerization of α and β tubulin

SMILES: CN(Cc1cnc2nc(N)nc(N)c2n1)c1ccc(C(=O)N[C@@H](CCC(=O)O)C(=O)O)cc1 [MTX, Methotrexate]
DHFR mRNA expression level (DHFR mRNA; A431, with respect to control): 2.92 fold change
DHFR mRNA expression level (DHFR mRNA; A549, with respect to control): 2.20 fold change
DHFR mRNA expression level (DHFR mRNA; FaDu, with respect to control): 2.82 fold change
DHFR mRNA expression level (DHFR mRNA; K562, with respect to control): 2.20 fold change
DHFR mRNA expression level (DHFR mRNA; [25]): 2.59 fold change
DHFR mRNA expression level (DHFR mRNA; PC-3, with respect to control): 2.0 fold change

IC50 [20]: 7.54 ± 5.8 µM
SMILES: NCCC[C@](N)(C(=O)O)C(F)F [DFMO, α-difluoromethylornithine]
ODC mRNA expression level (ODC mRNA; A431, with respect to control): 5.42 fold change
ODC mRNA expression level (ODC mRNA; A549, with respect to control): 4.24 fold change
ODC mRNA expression level (ODC mRNA; FaDu, with respect to control): 2.57 fold change
ODC mRNA expression level (ODC mRNA; K562, with respect to control): 4.07 fold change
ODC mRNA expression level (ODC mRNA; [25]): 3.67 fold change
ODC mRNA expression level (ODC mRNA; PC-3, with respect to control): 6.55 fold change

IC50 (A549 [21]): 1.18 ± 0.13 µM
IC50 (A549 [22]): 1.15 ± 0.16 µM
IC50 (A549 [23]): 2.1 ± 0.81 µM
effect on tubulin polymerization (tubulin protein): stabilizes the tubulin polymerization
SMILES: CC(=O)O[C@H]1C(=O)[C@@]2(C)[C@H]([C@H](OC(=O)c3ccccc3)[C@]3(O)C[C@H](OC(=O)[C@H](O)[C@@H](NC(=O)c4ccccc4)c4ccccc4)C(C)=C1C3(C)C)[C@]1(OC(C)=O)CO[C@@H]1C[C@@H]2O [Taxol, paclitaxel]

SMILES: O=c1[nH]cc(F)c(=O)[nH]1 [5-fluorouracil, reference compound]
reduction of EAC tumor formation (tumor growth inhibition) [24]: 98.39%

SMILES: CC(C)CC(=O)N[C@H](C(=O)N[C@H](C(=O)N[C@@H](CC(C)C)[C@@H](O)CC(=O)N[C@@H](C)C(=O)N[C@@H](CC(C)C)[C@@H](O)CC(=O)O)C(C)C)C(C)C [PEP A, pepstatin A, reference compound] (Isovaleryl-VV[Sta]A[Sta]-OH)
CAT D mRNA expression level (CAT D mRNA; A431, with respect to control): 1.61 fold change
CAT D mRNA expression level (CAT D mRNA; A549, with respect to control): 2.77 fold change
CAT D mRNA expression level (CAT D mRNA; FaDu, with respect to control): 2.22 fold change
CAT D mRNA expression level (CAT D mRNA; K562, with respect to control): 3.12 fold change
CAT D mRNA expression level (CAT D mRNA; [25]): 1.81 fold change
CAT D mRNA expression level (CAT D mRNA; PC-3, with respect to control): 1.66 fold change
